Assay [1] relates to pp59Lyn and IRS-1 in rat adipocytes. The experiment in a line: Tyrosine phosphorylation of pp59Lyn and IRS-1. It counts as cell-based. The settings on record: GPI-2350; IRS-1 tyrosine phosphorylation and glucose transport. The protocol: Polypeptides separated by SDS-PAGE were transferred to polyvinylidene difluoride membranes using the semidry procedure as described in “Müller, G. et al., (2001) Mol. Cell. Biol. 21: 4553-4567”. Washed membranes were incubated with anti-caveolin-1 (1:2000), anti-pp59^Lyn (1:1250), anti-aP (1:500), anti-5′-Nuc (1:750) and anti-IRS-1 (1:2000) antibodies for 4 h at 15° C. Washed membranes were incubated with horseradish peroxidase-coupled secondary goat anti-mouse (1:2000) or goat anti-rabbit IgG (1:4000) antibodies. Labeled proteins were visualized by enhanced chemiluminescence.
FIG. 7: Effect of GPI-2350 on the glimepiride/insulin-induced activation of signaling proteins. Isolated rat adipocytes were treated (5 min, 37° C.) without or with GPI-2350 (Panels A, 50 μM; Panels B, increasing conc.) and then incubated (120 min, 37° C.) in the absence or presence of insulin (10 nM) or glimepiride (20 μM). IRS-1 and pp59^Lyn were immunoprecipitated from the defatted postnuclear infranatant (see Materials and Methods) and solubilized combined hc/lcDIGs, respectively, and then immunoblotted for phosphotyrosine. […]

The target in a further assay is T1, GPI-PLC (T. brucei) (Trypanosoma brucei brucei, UniProt P09194).
T1 construct: purchased Oxford Glycosystems (Oxford, UK)
T1 sequence (P09194 whole entry): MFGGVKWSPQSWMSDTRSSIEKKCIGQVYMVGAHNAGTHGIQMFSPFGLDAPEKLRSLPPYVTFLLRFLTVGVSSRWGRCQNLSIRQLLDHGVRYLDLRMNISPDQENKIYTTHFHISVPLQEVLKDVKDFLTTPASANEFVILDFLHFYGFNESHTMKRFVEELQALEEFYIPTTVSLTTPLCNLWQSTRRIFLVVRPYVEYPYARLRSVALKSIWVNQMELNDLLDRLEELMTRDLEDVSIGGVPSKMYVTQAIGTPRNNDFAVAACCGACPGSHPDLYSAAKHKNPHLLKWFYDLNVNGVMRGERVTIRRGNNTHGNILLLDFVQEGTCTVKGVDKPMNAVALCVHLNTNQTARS
The experiment in a line: GPI-PLC (T. brucei) assay, human placental aP substrate, TX-114 partitioning. The format is biochemical. The protocol: GPI-PLD (rat serum) was assayed according to “Hari et al. (1997) Biochim. Biophys. Acta 1355: 293-302” by incubation with 10 μl of human placental aP solution (100 U/ml in 10 mM Hepes/NaOH, pH 7.0, 150 mM NaCl) in 100 μl of 200 mM Tris/maleate (pH 7.0) and 1% Nonidet P-40 for 10 min at 37° C. and subsequent termination of the reaction by addition of 0.4 ml of ice-cold stop buffer (10 mM Hepes/NaOH, pH 7.0, 150 mM NaCl, 0.1 mM MgCl2 and 0.01 mM zinc acetate). GPI-PLC (T. brucei) was assayed as described in “Mensa-Wilmot et al. (1995) Methods Enzymol. 250: 641-655” by incubation with 5 μl of human placental aP solution (see above) in 50 μl of 50 mM Tris/HCl (pH 8.0), 0.25% Nonidet P-40 and 5 mM EDTA for 30 min at 37° C. and subsequent termination of the reaction by addition of 0.45 ml of stop buffer. PI-PLC (B. cereus) and adipocyte GPI-PLC (5-25 μg plasma membranes or hc/lcDIGs) were assayed by incubation with 10 μl of bovine erythrocyte acetylcholinesterase (AChE) solution (12 U/ml in 10 mM Tris/HCl, pH 7.4, 144 mM NaCl, 0.1% TX-100) in 100 μl of 20 mM Hepes/KOH (pH 7.8), 144 mM NaCl, 0.1% TX-100, 0.2 mM MgCl2 for 1 h at 25° C. and subsequent termination by adding 5 μl of glacial acetic acid and then 0.4 ml of 10 mM Tris/HCl (pH 7.4), 144 mM NaCl. Each reaction mixture was subjected to TX-114 partitioning (see below).
Pelleted hc/lcDIGs (10-50 μg protein) or (G)PI-PLC reaction mixtures (0.5 ml) were separated into amphiphilic and hydrophilic proteins using partitioning between TX-114-enriched and depleted phases according to “Bordier, C., (1981) J. Biol, Chem. […]” by suspending in 1 ml of ice-cold TX-114 (1%), 25 mM Tris/HCl (pH 7.4), 144 mM NaCl or mixing with 0.5 ml of ice-cold TX-114 (2%), respectively. After incubation for 1 h on ice, the mixture was layered onto a cushion of 0.4 ml of 0.25 M sucrose and 25 mM Tris/HCl (pH 7.4) on ice. Phase separation was induced by warming up to 37° C. and subsequent centrifugation (10,000×g, 1 min). After re-extraction of the lower TX-114-enriched phase, aliquots of the pooled upper TX-114-depleted phase were measured for 5′-Nuc, aP and AChE activity or precipitated (15 polyethylene glycol 4000) for SDS-PAGE analysis.
Table 1: GPI-PLC of hcDIGs from rat adipocytes, GPI-PLC from T. brucei and PI-PLC from B. cereus were incubated with solubilized and partially purified bovine erythrocyte AChE or human placental aP in the absence or presence of increasing concentrations (0.05 μM-1 mM) of the inhibitors indicated under appropriate conditions (see Materials and Methods). Cleavage rate was calculated from the amount of hydrophilic AChE and aP activity recovered with the TX-114-depleted phase upon TX-114 partitioning. Means+SD from at least 3 independent incubations with partitioning/enzyme assays in quadruplicate are given. n.a., not applicable.
Purified (G)PI-PLC/D from B. cereus, rat serum and T. brucei as well as total plasma membranes (PM) and hc/lcDIGs prepared from isolated rat adipocytes were incubated (10 min, 30° C.) with increasing concentrations of GPI-2350 and then assayed for amphiphilic-to-hydrophilic conversion of AChE and aP by TX-114 partitioning (see Materials and Methods). The lipolytic activity was calculated as % of the control reaction in the absence of GPI-2350 (set at 100%). Means+SD of at least 4 independent incubations with AChE and aP activity measurements in triplicate each are given.

With `CCCCCCCCCCCCP1(=O)O[C@@H]2[C@H](O)[C@@H](O)[C@H](O)[C@@H](O)[C@@H]2O1` (some centres unmarked) [GPI-2350, myo-inositol-1,2-cyclo-dodecylphosphonic acid], the “effect on stimulation by other insulin-mimetic stimuli” value in assay [1] is “neither IRS-1 tyrosine phosphorylation nor glucose transport (Tab. 3) by these stimuli was affected significantly”. Further, the IC50 – broadly, the concentration that inhibits the measured activity by half – is 2 to 5 µM on GPI-PLC (T. brucei) (IC50, Table 1, inhibitor 0.05 μM-1 mM) and 2 µM at GPI-PLC (T. brucei) (apparent IC50, FIG. 2). The inhibition (as a rule, how much of the control response was suppressed) at 1000 µM on GPI-PLC (T. brucei) (read-out: inhibition % at 1 mM) is 85%. In addition, the “reversal of half-maximal inhibition” value at GPI-PLC (T. brucei) (upon 10-fold dilution with excess of fresh GPI-protein substrate) is “completely reversed”.
